In ChEMBL document CHEMBL1201862, “PubChem BioAssay data set” (2004):
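All cell lines were grown in 96-well plates and treated with compound for 48 hours. Here, GI50 denotes the concentration required for 50% inhibition of growth.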 Calls of active or inactive are those of the source. Cut-off read from the data, not from the text of the source: active = GI50 up to about 1.1 µM and inactive = higher.

What was measured:
Assay in all cases: growth of human tumour cells (NCI), 48 h
[1] = tested on: COLO 205
[2] = tested on: HCC 2998
[3] = tested on: HOP-62
[4] = tested on: KM12
[5] = tested on: MOLT-4
[6] = tested on: Malme-3M
[7] = tested on: OVCAR-3
[8] = tested on: RPMI-8226
[9] = tested on: SK-MEL-2
[10] = tested on: SK-MEL-5
[11] = tested on: SN12C
[12] = tested on: SNB-75
[13] = tested on: SR
[14] = tested on: TK-10
[15] = tested on: BT-549
[16] = tested on: MDA-N
[17] = tested on: RXF 393
[18] = tested on: LOX IMVI
[19] = tested on: MCF7

| Compound | GI50 [1] | GI50 [2] | GI50 [3] | GI50 [4] | GI50 [5] | GI50 [6] | GI50 [7] | GI50 [8] | GI50 [9] | GI50 [10] | GI50 [11] | GI50 [12] | GI50 [13] | GI50 [14] | GI50 [15] | GI50 [16] | GI50 [17] | GI50 [18] | GI50 [19] |
| --- | --- | --- | --- | --- | --- | --- | --- | --- | --- | --- | --- | --- | --- | --- | --- | --- | --- | --- | --- |
| CCCN(CCC)CCc1cc(C(C)=O)n(S(=O)(=O)c2ccc(C)cc2)c1 | > 100 µM (inactive) | > 100 µM (inactive) | > 100 µM (inactive) | > 100 µM (inactive) | > 100 µM (inactive) | > 100 µM (inactive) | > 100 µM (inactive) | > 100 µM (inactive) | > 100 µM (inactive) | 41.4 µM (inactive) | > 100 µM (inactive) | > 100 µM (inactive) | > 100 µM (inactive) | > 100 µM (inactive) | – | – | – | – | – |
| COC(=O)c1cc(C#N)[nH]c1-c1ccc(C)s1 | 64.3 µM (inactive) | > 100 µM (inactive) | 33 µM (inactive) | 92.7 µM (inactive) | > 100 µM (inactive) | – | 26.9 µM (inactive) | 51.3 µM (inactive) | – | – | 63.2 µM (inactive) | 25.3 µM (inactive) | 63 µM (inactive) | – | 30.5 µM (inactive) | > 100 µM (inactive) | 11.5 µM (inactive) | – | – |
| CN1CCN(C2=NCCO2)CC1 | > 100 µM (inactive) | > 100 µM (inactive) | > 100 µM (inactive) | > 100 µM (inactive) | > 100 µM (inactive) | > 100 µM (inactive) | > 100 µM (inactive) | > 100 µM (inactive) | > 100 µM (inactive) | > 100 µM (inactive) | > 100 µM (inactive) | > 100 µM (inactive) | > 100 µM (inactive) | > 100 µM (inactive) | – | > 100 µM (inactive) | > 100 µM (inactive) | > 100 µM (inactive) | > 100 µM (inactive) |
| CCCCCCCCCCCCN(O)C(=O)c1ccccc1 | – | 30.3 µM (inactive) | – | 38 µM (inactive) | 6.44 µM (inactive) | 17.5 µM (inactive) | > 100 µM (inactive) | 15.1 µM (inactive) | 47 µM (inactive) | > 10 µM (inactive) | 17.1 µM (inactive) | 22.9 µM (inactive) | 8.26 µM (inactive) | 46.5 µM (inactive) | – | – | 35.2 µM (inactive) | 20.5 µM (inactive) | – |
| Cc1ccc(S(=O)(=O)N/N=C2\C=CC3(CC2)C(=O)N(I)c2ccccc23)cc1 (centres undefined) | > 100 µM (inactive) | > 100 µM (inactive) | > 100 µM (inactive) | 82.2 µM (inactive) | 42.6 µM (inactive) | 0.055 µM (active) | > 100 µM (inactive) | 39.3 µM (inactive) | 48.1 µM (inactive) | > 100 µM (inactive) | > 100 µM (inactive) | > 100 µM (inactive) | 86.9 µM (inactive) | > 100 µM (inactive) | – | 83 µM (inactive) | 15.1 µM (inactive) | > 100 µM (inactive) | – |
| COC(=O)C(C(=O)C(=O)Nc1cccc(OC)c1)c1cnc2ccccc2n1 (centres undefined) | > 100 µM (inactive) | > 100 µM (inactive) | > 100 µM (inactive) | > 100 µM (inactive) | > 100 µM (inactive) | > 100 µM (inactive) | – | > 100 µM (inactive) | > 100 µM (inactive) | > 100 µM (inactive) | > 100 µM (inactive) | > 100 µM (inactive) | > 100 µM (inactive) | > 100 µM (inactive) | – | – | 46.1 µM (inactive) | > 100 µM (inactive) | – |
| COc1ccc(CC2=NCCc3cc(OC)c(OC)cc32)cc1Br | 14.6 µM (inactive) | 14.1 µM (inactive) | 4.36 µM (inactive) | 16.1 µM (inactive) | 6.18 µM (inactive) | 22.8 µM (inactive) | – | – | 33.4 µM (inactive) | 12.5 µM (inactive) | 15.8 µM (inactive) | – | 11.9 µM (inactive) | 50 µM (inactive) | – | – | 21.1 µM (inactive) | 5.09 µM (inactive) | – |
